≈ marks a conversion by molar mass, not a printed value.
Tests used:
EcFabI = EcFabI (Escherichia coli, UniProt P0AEK4); test: FabI enzymatic activity by NADH/NADPH oxidation (fluorescence), EcFabI; type: biochemical; details: 9 nmol/L EcFabI; trans-dodecenoyl-CoA and NADH; pH 6.5
Protocol: (§4) In this test example, the enzymatic activity was evaluated by monitoring the oxidation of cofactor NADH/NADPH using a microplate reader.
(§5) The compound was dissolved in DMSO and added to a 384-well plate using ECHO665. Serial 3-fold or 4-fold dilutions were prepared to generate 10 dose points with two replicates per concentration, ensuring a final DMSO concentration 1% in each reaction well. Then, a FabI protein solution was added, and the protein was prepared in a buffer containing 100 mmol/L PBS, 0.05% Tween-20, and 150 mmol/L NaCl (pH 6.5), so that the final concentrations of SaFabI and EcFabI proteins were 15 nmol/L and 9 nmol/L, respectively. The prepared 5 µL of 15 nmol/L SaFabI and 9 nmol/L EcFabI were added to a 384-well assay plate, and centrifuged at 1000 rpm for 1 minute. Then, the plate was pre-incubated in a temperature-controlled shaker at 30 °C for 20 minutes. Moreover, substrates trans-octenoyl-CoA, NADPH, trans-dodecenoyl-CoA, and NADH were diluted in a buffer containing 100 mmol/L PBS, 0.05% Tween-20, and 15 0 mmol/L NaCl (pH 6.5) respectively, and their concentrations were adjusted to 300 µmol/L, 300 µmol/L, 600 µmol/L, and 150 µmol/L, respectively. For SaFabI, 5 µL of 300 µmol/L trans-octenoyl-CoA and 5 µL of 300 µmol/L NADPH were added to initiate the reaction. Immediately after initiation, the plate was placed into the microplate reader, and fluorescence signals (Ex 340 nm/Em 460 nm) were recorded every 0.5 minutes for at least 10 minutes. Similarly, 5 µL of 600 µmol/L trans-dodecenoyl-CoA and 5 µL of 150 µmol/L NADH were added to initiate reaction of EcFabI. Immediately after initiation, the plate was immediately placed into the microplate reader, and fluorescence signals (Ex 340 nm/Em 460 nm) were recorded every 0.5 minutes for at least 10 minutes. The reaction rate (fluorescence signal per minute) of each well was calculated from the fluorescence values. The inhibitory effect of the compound on the protein was then calculated based on the reaction rate, and the IC50 value for inhibition of enzyme activity by the compound was determined by fitting the data using GraphPad Prism 6 with log (inhibitor) vs. response variable slope model. The fitting equation is: Y=Bottom + (Top-Bottom)/(1+10^((LogIC50-X)*HillSlope)), wherein Y represents the known percentage of residual enzyme activity, and X represents the known Log concentration of the compound.

MRSA NRS 384 = test: MIC, agar plate two-fold dilution; type: cell-based, Staphylococcus aureus; details: MRSA NRS 384; MHA, 37°C, 16-20 hours
Protocol: (§1) In this test example, the minimum inhibitory concentration (MIC) of the compound was determined.
(§2) The test drug concentration was set to be within a range of 0.008 µg/mL to 128 µg/mL in a two-fold serial dilution using an agar plate two-fold dilution method. The sample was dissolved in DMSO to prepare a 2 mL solution with a concentration of 1.92 mg/mL. The control group was prepared in sterile distilled water to obtain a concentration of 1.92 mg/mL. 1 mL of the prepared drug solution was added to a sterile culture dish, followed by addition of 14 mL of MHA culture medium at approximately 60°C. After thorough mixing, 1 mL of sterilized distilled water was added for two-fold dilution, resulting in a final drug concentration of 64 µg/mL, 32 µg/mL, 16 µg/mL, 8 µg/mL, 4 µg/mL, 2 µg/mL, 1 µg/mL, 0.5 µg/mL, 0.25 µg/mL, 0.125 µg/mL, 0.06 µg/mL, 0.03 µg/mL, 0.015 µg/mL, and 0.008 µg/mL (wherein the final concentrations of samples 2, 4, and 9 were diluted downward starting from 128 µg/mL), and set aside for later use. The prepared bacterial suspension was inoculated onto drug-containing MHA culture medium with a multi-point inoculator, with an inoculation volume of approximately 10^4 CFU per point. A sterile control group (1 mL DMSO + 14 mL MHA culture medium and 1 mL sterile distilled water + 14 mL MHA culture medium) was set up.

MSSA ATCC 29213 = test: MIC, agar plate two-fold dilution; type: cell-based, Staphylococcus aureus; details: MSSA ATCC 29213; MHA, 37°C, 16-20 hours
Protocol: as §1, §2

VRSA VRS 1 = test: MIC, agar plate two-fold dilution; type: cell-based, Staphylococcus aureus; details: VRSA VRS 1; MHA, 37°C, 16-20 hours
Protocol: as §1, §2

[1] = test system: Acinetobacter baumannii ARLG 1852; test: MIC, agar plate two-fold dilution; type: cell-based; details: Acinetobacter baumannii ARLG 1852; MHA, 37°C, 16-20 hours
Protocol: as §1, §2

[2] = test system: Escherichia coli. ATCC 25923; test: MIC, agar plate two-fold dilution; type: cell-based; details: Escherichia coli. ATCC 25923; MHA, 37°C, 16-20 hours
Protocol: as §1, §2

[3] = test system: Klebsiella pneumoniae ATCC BAA 2472; test: MIC, agar plate two-fold dilution; type: cell-based; details: Klebsiella pneumoniae ATCC BAA 2472; MHA, 37°C, 16-20 hours
Protocol: as §1, §2

[4] = test system: Acinetobacter baumannii ATCC17979; test: MIC, antibacterial spectrum; type: cell-based
Protocol: as §2
(§3) Referring to the minimum inhibitory concentration test method mentioned above, the antibacterial spectrum of compound 1b was tested. […] Table 3 Antibacterial Spectrum Testing of Compound 1b MIC (µg/mL)

[5] = test system: Enterobacter cloacae ATCC13047; test: MIC, antibacterial spectrum; type: cell-based
Protocol: as §2, §3

[6] = test system: Enterococcus faecalis ATCC51299; test: MIC, antibacterial spectrum; type: cell-based
Protocol: as §2, §3

[7] = test system: Haemophilus influenzae ATCC29213; test: MIC, antibacterial spectrum; type: cell-based
Protocol: as §2, §3

[8] = test system: Klebsiella pneumoniae ATCC2055; test: MIC, antibacterial spectrum; type: cell-based
Protocol: as §2, §3

[9] = test system: Moraxella catarrhalis ATCC43617; test: MIC, antibacterial spectrum; type: cell-based
Protocol: as §2, §3

[10] = test system: Neisseria gonorrhoeae ATCC49226; test: MIC, antibacterial spectrum; type: cell-based
Protocol: as §2, §3

[11] = test system: Pseudomonas aeruginosa ATCC12055; test: MIC, antibacterial spectrum; type: cell-based
Protocol: as §2, §3

[12] = test system: Salmonella Typhi CMCC12055; test: MIC, antibacterial spectrum; type: cell-based; details: Salmonella enterica
Protocol: as §2, §3

[13] = test system: Staphylococcus epidermidis ATCC35983; test: MIC, antibacterial spectrum; type: cell-based
Protocol: as §2, §3

[14] = test system: Staphylococcus haemolyticus CICC23976; test: MIC, antibacterial spectrum; type: cell-based
Protocol: as §2, §3

[15] = test system: Staphylococcus hominis ATCC27844; test: MIC, antibacterial spectrum; type: cell-based
Protocol: as §2, §3

[16] = Pharmacokinetic study in rats; type: in vivo, Sprague-Dawley (SD) rats; details: oral gavage
Protocol: In this test experiment, a pharmacokinetic study of the compound in rats was conducted.
Twelve healthy adult female Sprague-Dawley (SD) rats (purchased from Beijing Vital River Laboratory Animal Technology Co., Ltd., China) with an average body weight of about 180-220 g were selected, and divided into four groups (n=3 per group). Two groups were administered via tail vein injection, while the other two groups were administered via oral gavage. Compound 1b was dissolved in a vehicle containing 5% DMSO, 30% PEG400, and 65% H2O, and Debio-1450 was dissolved in physiological saline, both of which were formed into a stable clear solution for later use. Animals were fasted for 12 hours before administration and resumed normal feeding 2 hours post administration. Then, blood samples were collected through the jugular vein at the following time points: 0.083 h, 0.25 h, 0.5 h, 1 h, 2 h, 4 h, 8 h, 24 h (tail vein injection) and 0.25 h, 0.5 h, 1 h, 2 h, 4 h, 8 h, 24 h (oral gavage administration), respectively, with a blood collection volume of about 200-400 µL. Whole blood collected at each time point was immediately transferred into an anticoagulant tube containing K2EDTA, then stored on ice in an insulated container. All samples were centrifuged within 15 minutes at 4600 r/min and 4°C for 5 minutes to separate plasma. The concentration of the compound in the plasma of each rat was determined using LC-MS/MS method, and the pharmacokinetic parameter was calculated from the drug concentration-time profile. Table 4 Oral Pharmacokinetic Parameters of Compound 1b/Debio-1450 In Rats

SaFabI = SaFabI (Staphylococcus aureus, UniProt Q6GI75); test: FabI enzymatic activity by NADH/NADPH oxidation (fluorescence), SaFabI; details: SaFabI IC50, 15 nmol/L SaFabI; trans-octenoyl-CoA and NADPH; pH 6.5
Protocol: as §4, §5

[17] = female, Sprague-Dawley, rat, in vivo, 15 mg/Kg, plasma

Chain of EcFabI (P0AEK4 whole entry): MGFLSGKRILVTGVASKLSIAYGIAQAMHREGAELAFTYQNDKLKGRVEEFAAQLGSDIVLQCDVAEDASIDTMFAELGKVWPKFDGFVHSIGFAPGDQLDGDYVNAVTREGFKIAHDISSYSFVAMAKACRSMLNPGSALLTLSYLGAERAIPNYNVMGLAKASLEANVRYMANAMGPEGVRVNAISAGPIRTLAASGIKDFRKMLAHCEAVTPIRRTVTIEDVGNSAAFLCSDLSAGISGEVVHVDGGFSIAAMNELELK
Chain of SaFabI (Q6GI75 whole entry): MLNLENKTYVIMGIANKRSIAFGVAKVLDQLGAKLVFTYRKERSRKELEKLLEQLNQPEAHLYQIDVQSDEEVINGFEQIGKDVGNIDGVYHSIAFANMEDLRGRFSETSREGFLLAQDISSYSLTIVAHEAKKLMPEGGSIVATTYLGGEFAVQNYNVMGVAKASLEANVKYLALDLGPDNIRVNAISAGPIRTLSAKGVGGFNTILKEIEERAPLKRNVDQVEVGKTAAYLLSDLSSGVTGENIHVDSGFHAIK

SMILES: Cc1c(CN(C)C(=O)/C=C/c2cnc3c(c2)C2CC2(N)C(=O)N3)oc2c(C)cccc12 (stereo not drawn) [Compound 1b]
- IC50 (EcFabI): 5 nM
- Minimum Inhibitory Concentration MIC (MRSA NRS 384): <0.008 µg/mL
- Minimum Inhibitory Concentration MIC (MSSA ATCC 29213): <0.008 µg/mL
- Minimum Inhibitory Concentration MIC (VRSA VRS 1): 0.12 µg/mL
- Minimum Inhibitory Concentration MIC [1]: >32 µg/mL
- Minimum Inhibitory Concentration MIC [2]: 4 µg/mL
- Minimum Inhibitory Concentration MIC [3]: 16 µg/mL
- MIC [4]: 32 µg/mL (≈ 76.8 µM)
- MIC [5]: 8 µg/mL (≈ 19.2 µM)
- MIC [6]: > 64 µg/mL
- antibacterial activity (in words) [7]: good antibacterial activity
- MIC ([7]; ATCC29213): 0.25 µg/mL (≈ 0.6 µM)
- MIC [8]: 8 µg/mL (≈ 19.2 µM)
- antibacterial activity (in words) ([9]; Moraxella catarrhalis): excellent antibacterial activity
- MIC ([9]; Moraxella catarrhalis ATCC43617): < 0.06 µg/mL
- MIC [10]: 8 µg/mL (≈ 19.2 µM)
- MIC [11]: > 64 µg/mL
- MIC [12]: 4 µg/mL (≈ 9.6 µM)
- antibacterial activity (in words) ([13]; Staphylococcus epidermidis): excellent antibacterial activity
- MIC ([13]; Staphylococcus epidermidis ATCC35983): < 0.06 µg/mL
- MIC [14]: < 0.06 µg/mL
- antibacterial activity (in words) ([15]; Staphylococcus hominis): excellent antibacterial activity
- MIC ([15]; Staphylococcus hominis ATCC27844): < 0.06 µg/mL
- Tmax [16, 17]: 1.5 h
- half-life [16, 17]: 2.57 h
- F ([16]; 15 mg/Kg vs tail vein injection): 110%
- IC50 (SaFabI): 12 nM

Reference: EP4768485A1 (Guangzhou Baiyunshan Pharmaceutical Holdings Co., Ltd. …, priority 2023, dated 2025)
